The source made the active and inactive calls.
Experiments:
[1] = P. falciparum Dd2 growth inhibitors, dose response, SYBR Green, cherry-picked samples (AID 1159567); type: functional, cell-based
[2] = HepG2 cell cytotoxicity, dose response, cytotoxicity control, cherry-picked samples (AID 1159577); type: functional, cell-based
[3] = P. falciparum Dd2 growth inhibitors, dose response, SYBR Green, dry powder samples (AID 1159566); type: functional, cell-based;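 further: potency for growth inhibition with lower SYBR green DNA signal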
[4] = P. falciparum Dd2 blood-stage growth inhibition, dose response, SYBR Green fluorescence, erythrocytes, dry powder, set 2 (AID 1159574); type: functional, cell-based
[5] = P. falciparum ATP4 D1247Y mutant growth inhibitors, dose response, NITD609-resistant line, SYBR Green, dry powder (AID 1159571); type: functional, cell-based;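 further: parasites synchronized at ring stage by sorbitol before testing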
[6] = P. falciparum 3D7-ScDHODH growth inhibitors, dose response, SYBR Green, dry powder samples (AID 1159570); type: functional, cell-based;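 further: parasite growth measured after 72 hours of compound exposure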
BJ [7] = test: cells; type: functional, cell-based; conditions: Homo sapiens
[8] = target: E3 ubiquitin-protein ligase Mdm2 (Homo sapiens, UniProt Q00987); test: enhancers of MDM2-luciferase reporter signal, concentration-effect titration, project on inhibitors of MDM2 ubiquitin ligase, cellular assay, luminescent readout, 384-well plate format (AID 1394); type: functional;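 further: MDM2 E3 inhibitors raise luminescence so EC50 is for signal enhancement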
Chain of E3 ubiquitin-protein ligase Mdm2 (Q00987 whole entry): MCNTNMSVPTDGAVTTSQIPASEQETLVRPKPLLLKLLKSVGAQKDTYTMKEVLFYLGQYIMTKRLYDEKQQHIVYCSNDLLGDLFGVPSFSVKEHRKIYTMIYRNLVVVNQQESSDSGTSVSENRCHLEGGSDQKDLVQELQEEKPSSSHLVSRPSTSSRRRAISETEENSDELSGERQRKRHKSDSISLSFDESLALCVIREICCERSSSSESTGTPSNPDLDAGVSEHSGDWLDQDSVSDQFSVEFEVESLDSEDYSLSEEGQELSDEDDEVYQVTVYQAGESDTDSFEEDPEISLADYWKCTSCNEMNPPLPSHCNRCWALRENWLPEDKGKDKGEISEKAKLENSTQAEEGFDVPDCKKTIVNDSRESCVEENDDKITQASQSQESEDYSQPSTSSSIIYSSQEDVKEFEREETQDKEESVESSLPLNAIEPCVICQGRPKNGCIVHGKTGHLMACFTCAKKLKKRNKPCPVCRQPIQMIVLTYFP

Protein RecA = target: T1, Protein RecA (Mycobacterium tuberculosis, UniProt P9WHJ3); test: Fluorescence Cell-Free Homogeneous Dose Retest to Identify Inhibitors of RecA-Intein Splicing Activity. [Related pubchem assays (depositor defined):AID2097, AID2223, AID489010, AID492950]; type: functional
T1 sequence (P9WHJ3 whole entry): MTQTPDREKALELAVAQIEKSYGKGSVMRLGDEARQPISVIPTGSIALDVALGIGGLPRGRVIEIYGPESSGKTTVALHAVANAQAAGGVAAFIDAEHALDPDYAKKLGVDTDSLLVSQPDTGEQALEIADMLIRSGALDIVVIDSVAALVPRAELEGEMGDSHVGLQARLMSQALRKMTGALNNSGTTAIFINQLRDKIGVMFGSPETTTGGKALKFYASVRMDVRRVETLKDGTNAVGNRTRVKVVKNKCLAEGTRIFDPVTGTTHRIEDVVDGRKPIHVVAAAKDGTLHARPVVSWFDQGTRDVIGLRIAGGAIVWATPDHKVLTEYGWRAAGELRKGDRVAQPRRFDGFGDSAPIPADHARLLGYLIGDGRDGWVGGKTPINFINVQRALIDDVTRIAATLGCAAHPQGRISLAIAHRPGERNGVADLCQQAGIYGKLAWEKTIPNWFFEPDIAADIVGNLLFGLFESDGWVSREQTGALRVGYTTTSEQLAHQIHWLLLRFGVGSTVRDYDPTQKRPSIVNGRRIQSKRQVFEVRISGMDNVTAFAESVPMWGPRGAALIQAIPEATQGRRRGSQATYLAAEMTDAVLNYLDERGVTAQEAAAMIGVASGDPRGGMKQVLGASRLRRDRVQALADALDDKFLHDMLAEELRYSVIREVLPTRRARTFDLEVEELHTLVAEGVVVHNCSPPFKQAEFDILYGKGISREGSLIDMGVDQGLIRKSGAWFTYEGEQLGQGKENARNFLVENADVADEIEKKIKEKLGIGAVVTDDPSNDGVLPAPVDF

BJ [9] = test: cytotoxicity toward BJ-TERT fibroblasts, dose response, cell-based, RAS-independent, luminescence (AID 1933); type: functional; conditions: Homo sapiens
[10] = cytotoxicity toward DRD oncogenic fibroblasts, dose response, cell-based, non-viral oncogenic, luminescence (AID 1934); type: functional; conditions: Homo sapiens
[11] = target: T2, Replicative DNA helicase DnaB (Mycobacterium tuberculosis, UniProt P9WMR3); test: DnaB intein splicing inhibitors, dose response, biochemical, cell-free fluorescence (AID 449749); type: functional
T2 sequence (P9WMR3 whole entry): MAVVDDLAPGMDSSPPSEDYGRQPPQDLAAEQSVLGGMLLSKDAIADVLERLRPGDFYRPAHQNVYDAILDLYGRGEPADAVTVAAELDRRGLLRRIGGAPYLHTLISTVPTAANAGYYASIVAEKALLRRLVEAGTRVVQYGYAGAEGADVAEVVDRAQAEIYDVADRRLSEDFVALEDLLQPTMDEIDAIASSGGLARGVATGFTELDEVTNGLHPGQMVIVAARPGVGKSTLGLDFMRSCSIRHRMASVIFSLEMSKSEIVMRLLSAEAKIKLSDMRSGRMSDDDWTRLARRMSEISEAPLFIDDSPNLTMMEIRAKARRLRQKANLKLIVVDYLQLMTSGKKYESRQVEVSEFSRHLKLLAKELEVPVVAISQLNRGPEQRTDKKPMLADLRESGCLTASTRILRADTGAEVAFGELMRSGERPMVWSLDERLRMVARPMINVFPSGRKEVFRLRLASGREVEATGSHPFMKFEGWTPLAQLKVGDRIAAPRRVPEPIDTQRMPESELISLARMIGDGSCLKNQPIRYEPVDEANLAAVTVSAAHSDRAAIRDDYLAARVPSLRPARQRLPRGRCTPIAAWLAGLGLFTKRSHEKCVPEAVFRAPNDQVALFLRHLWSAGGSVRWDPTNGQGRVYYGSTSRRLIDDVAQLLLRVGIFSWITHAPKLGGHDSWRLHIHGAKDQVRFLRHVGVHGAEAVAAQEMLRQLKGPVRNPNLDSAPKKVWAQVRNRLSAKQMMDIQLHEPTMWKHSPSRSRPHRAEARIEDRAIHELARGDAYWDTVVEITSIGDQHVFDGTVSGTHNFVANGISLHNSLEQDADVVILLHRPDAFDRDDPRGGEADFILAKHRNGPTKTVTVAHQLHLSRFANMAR

[12] = Glucagon-like peptide 1 release potency, NCI-H716 cell line, dose-response, half-maximal inhibitory concentration (AID 1117344); type: functional, cell-based
[13] = half-maximal inhibitory concentration for glucagon-like peptide-1 release, STC-1 cell line, dose-response (AID 1117345); type: functional, cell-based

## N#C[C@@H]1[C@H](c2ccc(C#Cc3ccccc3F)cc2)[C@H](CO)N1C(=O)C1CCCC1
[1]
  AC50: 3.48 µM (active)
[2]
  AC50: > 39 µM (inactive)

## O=C(c1ccccc1F)N1CC(=O)N2[C@H](C1)[C@@H](c1ccc(-c3cccnc3)cc1)[C@@H]2CO
[3]
  AC50: 8.24 nM (active)
[4]
  AC50: 33.1 nM (active)
[1]
  AC50: < 0.3 µM (active)
[5]
  AC50: 14.6 nM (active)
[6]
  AC50: 36.9 nM (active)

## Cc1ccc(C=C2C(Cl)=C(Cl)C(Cl)=C2Cl)cc1
BJ [7]
  EC50: 6.03 µM (inconclusive)
[8]
  EC50: 780 nM (active)
Protein RecA
  EC50: 5.66 µM (active)
BJ [9]
  EC50: 5.3 µM (inconclusive)
[10]
  EC50: 5.03 µM (inconclusive)
[11]
  AC50: > 380 µM (inactive)

## CCCCCCCCCCCCCCNCCO
[12]
  IC50: 13.6 µM (inactive)
[13]
  IC50: > 20 µM (inactive)

From ChEMBL document CHEMBL1201862, “PubChem BioAssay data set” (2004)
